Experimental data: patent publication US8383595B2, “Peptide derivative and composition for promoting tear secretion comprising the same” (Kinki University, priority 2008, dated 2013)
Where no end group is shown, it is not given here.

How the values were obtained:
[1] = tested on: rat lacrimal secretion; assay: Rat lacrimal fluid secretion in vivo (Schirmer test paper); conditions: male Wistar rat; for lacrimal secretion promoting action: peptide 5 μmol/kg i.v. one minute after amastatin 2.5 μmol/kg i.v., six minutes after administration (FIGS. 1, 3); for lacrimal secretion promoting action compared with Ser-Leu-Ile-Gly-Arg-Leu-NH2 and Ile-Gly-Arg-Leu-NH2: six minutes after administration (FIGS. 2, 4)
Procedure: An amount of lacrimal secretion which is an indication for determining an effect of promoting lacrimal secretion can be measured according to a known method such as by Iga et al. (Iga, Y. et al., Jpn. J. Pharmacol., 78, 373-80, 1998) using a rat. In particular, a rat is anesthetized with pentobarbital (50 mg/kg, intra-abdominal administration), and a paper with 2 mm width for testing the human lacrimal secretion function, the Schirmer test paper (Showa Yakuhin Kako Co., Ltd.) is inserted into a lower eyelid of the rat. After a fixed period of time has passed, the test paper is removed, and a length of the wetted portion of the test paper is measured using a caliper square. If a statistically significant increase of lacrimal secretion is observed when a test substance is administered, it can be said that the substance has the lacrimal secretion promoting action.
Male Wistar rat at 6 weeks of age was used in experiments. Each animal was housed for one week under the environment of room temperature of 23±2° C., a humidity of 50±5% and a 12 hours light/dark cycle (light: 07:00-19:00) and, thereafter, it was subjected to experiments. During the housing and experiment period, the animal was fed a solid chaw and water ad lib.
An amount of rat lacrimal fluid secretion was measured according to the method of Iga et al. (Iga, Y. et al., Jpn. J. Pharmacol., 78, 373-80, 1998). That is, the rat was anesthetized with pentobarbital (50 mg/kg, intraabdominal administration), and a paper with 2 mm width for testing human lacrimal secretion function, the Schirmer test paper (Showa Yakuhin Kako Co., Ltd.) was inserted into a lower eyelid of the rat. After the period of time fixed has passed, the test paper was removed, and a length of a wetted portion of the test paper was measured using a caliper square to define an indicator of lacrimal secretion. An amount of lacrimal fluid was measured at 1, 2, 4 and 6 minutes after administration of the peptides.
In addition, the results are shown in the mean (mm)±standard error, and the test of significance was performed according to a Tukey's multiple comparison test.
A physiological salt solution of amastatin (2.5 μmol/kg), which is an aminopeptidase inhibitor, was intravenously administrated to the rat, and after one minute, a physiological salt solution of various peptide derivatives (5 μmol/kg) was intravenously administrated. Measurements were initiated immediately after administration of the peptides.
As a control, an amount of lacrimal secretion was also measured in the case where the physiological salt solution without the peptide (solvent) was intravenously, administrated.

[2] = tested on: rat lacrimal secretion; conditions: earlier finding, no details given; cited from earlier work
[3] = tested on: PAR-2; conditions: as disclosed in JP 2001-181208A; cited from earlier work
[4] = peptide 5 μmol/kg i.v. after amastatin 2.5 μmol/kg i.v.

D-Arg-D-Leu-NH2 [(D)Arg-(D)Leu-NH2]
lacrimal secretion promoting action [1]: did not entirely influence on lacrimal secretion

Ile-Gly-Arg-Leu-NH2 (IGRL-NH2) [Ile-Gly-Arg-Leu-NH7]
lacrimal secretion promoting action (previously demonstrated) [2]: previously demonstrated to have the lacrimal secretion promoting action

CC(C)C[C@H](NC(=O)[C@H](CCCNC(=N)N)NC(=O)c1ccco1)C(N)=O [2-furoyl-(L)Arg-(L)Leu-NH2, N-(2-furoyl)-L-Arg-L-Leu-NH2]
duration of the lacrimal secretion promoting action compared with Ser-Leu-Ile-Gly-Arg-Leu-NH2 and Ile-Gly-Arg-Leu-NH2 ([1]; peptide 5 μmol/kg i.v. after amastatin 2.5 μmol/kg i.v., measured at 1, 2, 4 and 6 minutes (FIG. 5)): maintained over a longer period of time | lacrimal secretion promoting action compared with Ser-Leu-Ile-Gly-Arg-Leu-NH2 and Ile-Gly-Arg-Leu-NH2 [1, 4]: almost the same as those of Ser-Leu-Ile-Gly-Arg-Leu-NH2 and Ile-Gly-Arg-Leu-NH2 | lacrimal secretion promoting action [1]: potent lacrimal secretion promoting action

Ser-Leu-Ile-Gly-Arg-Leu-NH2 (SLIGRL-NH2)
activation of PAR-2 [3]: activates PAR-2 | lacrimal secretion promoting action (previously demonstrated) [2]: previously demonstrated to have the lacrimal secretion promoting action

L-Arg-D-Leu-NH2 [(L)Arg-(D)Leu-NH2]
lacrimal secretion promoting action [1]: did not entirely influence on lacrimal secretion

D-Arg-L-Leu-NH2 [(D) Arg-(L)Leu-NH2]
lacrimal secretion promoting action [1]: did not entirely influence on lacrimal secretion

cyclo-L-Arg-L-Leu-NH2 [cyclo-Arg-Leu]
lacrimal secretion promoting action [1]: did not entirely influence on lacrimal secretion

L-Arg-L-Leu-NH2 [(L)Arg-(L)Leu-NH2]
lacrimal secretion promoting action compared with Ser-Leu-Ile-Gly-Arg-Leu-NH2 and Ile-Gly-Arg-Leu-NH2 [1, 4]: lower than those of Ser-Leu-Ile-Gly-Arg-Leu-NH2 and Ile-Gly-Arg-Leu-NH2 | lacrimal secretion promoting action [1]: promote lacrimal secretion
